Measured values: PMC6407917, “Identification of GSK3186899/DDD853651 as a Preclinical Development Candidate for the Treatment of Visceral Leishmaniasis” (Journal of Medicinal Chemistry, 2018)

How the values were obtained:
Experiment in all cases: biochemical
Set-up in all cases: species or system HEK293/K-562/placenta mixed human extract; Kinobeads chemoproteomic competition binding, quantified by TMT LC-MS/MS, dose response up to 20 uM
[1] = biological target: IKBKE (Homo sapiens, UniProt Q14164)
[2] = biological target: NUAK2 (Homo sapiens, UniProt Q9H093)
[3] = biological target: CHEK1 (Homo sapiens, UniProt O14757)
[4] = biological target: HIPK2 (Homo sapiens, UniProt Q9H2X6)
[5] = biological target: CDK7 (Homo sapiens, UniProt P50613)
[6] = biological target: CDC42BPB (Homo sapiens, UniProt Q9Y5S2)
[7] = biological target: ACVR1B (Homo sapiens, UniProt P36896)
[8] = biological target: MARK2 (Homo sapiens, UniProt Q7KZI7)
[9] = biological target: HIPK3 (Homo sapiens, UniProt Q9H422)
[10] = biological target: IRAK3 (Homo sapiens, UniProt Q9Y616)
[11] = biological target: TEK (Homo sapiens, UniProt Q02763)
[12] = biological target: MAP3K4 (Homo sapiens, UniProt Q9Y6R4)
[13] = biological target: ADCK1 (Homo sapiens, UniProt Q86TW2)
[14] = biological target: CAMK2D (Homo sapiens, UniProt Q13557)
[15] = biological target: MAP3K9 (Homo sapiens, UniProt P80192)
[16] = biological target: CAMK1 (Homo sapiens, UniProt Q14012)
[17] = biological target: MAP3K5 (Homo sapiens, UniProt Q99683)
[18] = biological target: EPHB1 (Homo sapiens, UniProt P54762)
[19] = biological target: MAP3K1 (Homo sapiens, UniProt Q13233)
[20] = biological target: IRAK4 (Homo sapiens, UniProt Q9NWZ3)
[21] = biological target: EPHA3 (Homo sapiens, UniProt P29320)

Sequence of IKBKE (Q14164 whole entry): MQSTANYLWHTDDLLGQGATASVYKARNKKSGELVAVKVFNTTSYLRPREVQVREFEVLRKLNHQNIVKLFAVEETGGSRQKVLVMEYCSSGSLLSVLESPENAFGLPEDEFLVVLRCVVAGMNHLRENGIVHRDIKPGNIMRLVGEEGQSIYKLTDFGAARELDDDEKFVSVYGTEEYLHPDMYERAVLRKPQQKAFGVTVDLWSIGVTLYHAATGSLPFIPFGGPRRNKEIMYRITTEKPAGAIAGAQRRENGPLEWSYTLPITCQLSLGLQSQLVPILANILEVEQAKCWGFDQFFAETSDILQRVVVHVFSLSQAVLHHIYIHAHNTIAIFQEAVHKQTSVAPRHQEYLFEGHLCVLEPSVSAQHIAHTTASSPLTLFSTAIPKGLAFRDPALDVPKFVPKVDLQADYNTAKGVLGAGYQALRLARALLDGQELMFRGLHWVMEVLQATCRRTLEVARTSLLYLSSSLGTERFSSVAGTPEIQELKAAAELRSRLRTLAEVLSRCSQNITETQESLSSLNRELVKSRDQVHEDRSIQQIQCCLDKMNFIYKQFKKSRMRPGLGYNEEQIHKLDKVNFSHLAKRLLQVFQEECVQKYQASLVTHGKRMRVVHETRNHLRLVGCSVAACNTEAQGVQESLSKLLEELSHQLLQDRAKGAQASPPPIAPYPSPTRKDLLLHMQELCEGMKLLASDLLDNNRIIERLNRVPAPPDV
Sequence of CAMK2D (Q13557 whole entry): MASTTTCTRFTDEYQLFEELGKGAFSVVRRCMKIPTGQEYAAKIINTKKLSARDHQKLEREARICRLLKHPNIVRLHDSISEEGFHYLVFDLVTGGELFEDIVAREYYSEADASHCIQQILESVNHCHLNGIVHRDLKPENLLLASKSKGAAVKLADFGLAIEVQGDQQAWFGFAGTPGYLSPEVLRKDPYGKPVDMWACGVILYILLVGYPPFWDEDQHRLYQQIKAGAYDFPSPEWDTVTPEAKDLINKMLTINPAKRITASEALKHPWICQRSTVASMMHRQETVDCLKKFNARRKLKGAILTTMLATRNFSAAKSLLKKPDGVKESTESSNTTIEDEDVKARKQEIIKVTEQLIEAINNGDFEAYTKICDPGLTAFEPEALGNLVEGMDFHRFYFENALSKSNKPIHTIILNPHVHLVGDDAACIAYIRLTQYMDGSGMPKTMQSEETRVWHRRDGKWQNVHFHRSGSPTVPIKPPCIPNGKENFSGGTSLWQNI
Sequence of CAMK1 (Q14012 whole entry): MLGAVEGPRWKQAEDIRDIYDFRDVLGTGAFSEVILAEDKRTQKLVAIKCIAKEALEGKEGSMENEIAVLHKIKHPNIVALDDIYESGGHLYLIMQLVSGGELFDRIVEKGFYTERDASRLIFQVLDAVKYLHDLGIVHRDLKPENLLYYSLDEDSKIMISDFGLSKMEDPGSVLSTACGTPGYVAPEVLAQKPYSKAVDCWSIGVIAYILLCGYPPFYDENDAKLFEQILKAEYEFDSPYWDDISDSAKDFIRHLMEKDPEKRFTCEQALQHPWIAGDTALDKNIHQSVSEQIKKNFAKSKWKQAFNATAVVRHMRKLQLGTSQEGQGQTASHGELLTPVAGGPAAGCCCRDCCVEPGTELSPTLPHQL
Sequence of MAP3K1 (Q13233 whole entry): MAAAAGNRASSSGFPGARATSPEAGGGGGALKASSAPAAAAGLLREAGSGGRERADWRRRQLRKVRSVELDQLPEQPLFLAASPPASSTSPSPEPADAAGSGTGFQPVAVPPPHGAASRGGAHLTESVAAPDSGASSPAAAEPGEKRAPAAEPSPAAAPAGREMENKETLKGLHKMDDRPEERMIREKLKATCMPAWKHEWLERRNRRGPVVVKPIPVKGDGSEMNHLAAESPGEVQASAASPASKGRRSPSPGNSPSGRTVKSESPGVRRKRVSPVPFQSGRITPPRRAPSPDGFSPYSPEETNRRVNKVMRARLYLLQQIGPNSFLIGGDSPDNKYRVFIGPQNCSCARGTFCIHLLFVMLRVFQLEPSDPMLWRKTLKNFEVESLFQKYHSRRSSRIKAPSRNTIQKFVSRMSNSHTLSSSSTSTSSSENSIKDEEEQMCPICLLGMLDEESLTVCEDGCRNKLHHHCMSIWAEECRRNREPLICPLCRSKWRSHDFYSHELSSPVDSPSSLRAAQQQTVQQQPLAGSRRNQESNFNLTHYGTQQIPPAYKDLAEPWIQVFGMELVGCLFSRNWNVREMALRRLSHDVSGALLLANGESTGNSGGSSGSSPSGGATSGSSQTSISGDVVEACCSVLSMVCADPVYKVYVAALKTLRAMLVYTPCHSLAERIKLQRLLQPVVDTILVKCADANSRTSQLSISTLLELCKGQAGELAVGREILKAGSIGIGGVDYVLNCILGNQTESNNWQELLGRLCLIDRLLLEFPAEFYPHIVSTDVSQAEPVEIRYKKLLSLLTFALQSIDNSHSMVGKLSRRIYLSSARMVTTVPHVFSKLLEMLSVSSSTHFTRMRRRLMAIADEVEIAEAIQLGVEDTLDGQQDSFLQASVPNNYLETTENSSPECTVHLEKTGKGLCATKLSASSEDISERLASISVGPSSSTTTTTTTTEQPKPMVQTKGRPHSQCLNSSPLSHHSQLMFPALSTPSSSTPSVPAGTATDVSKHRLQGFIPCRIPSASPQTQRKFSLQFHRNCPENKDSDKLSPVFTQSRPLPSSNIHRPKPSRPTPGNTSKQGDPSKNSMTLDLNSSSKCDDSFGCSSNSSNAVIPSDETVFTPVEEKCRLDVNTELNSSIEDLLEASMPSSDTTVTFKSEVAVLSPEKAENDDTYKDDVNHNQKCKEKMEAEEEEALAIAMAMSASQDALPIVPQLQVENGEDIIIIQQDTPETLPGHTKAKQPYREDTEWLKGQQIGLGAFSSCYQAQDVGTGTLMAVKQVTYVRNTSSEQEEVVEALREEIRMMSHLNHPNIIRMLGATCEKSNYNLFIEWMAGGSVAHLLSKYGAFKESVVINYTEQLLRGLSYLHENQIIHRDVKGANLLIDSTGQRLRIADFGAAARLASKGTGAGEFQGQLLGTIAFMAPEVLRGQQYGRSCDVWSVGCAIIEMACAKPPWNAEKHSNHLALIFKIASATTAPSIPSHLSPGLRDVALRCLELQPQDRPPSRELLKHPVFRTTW
Sequence of MAP3K4 (Q9Y6R4 whole entry): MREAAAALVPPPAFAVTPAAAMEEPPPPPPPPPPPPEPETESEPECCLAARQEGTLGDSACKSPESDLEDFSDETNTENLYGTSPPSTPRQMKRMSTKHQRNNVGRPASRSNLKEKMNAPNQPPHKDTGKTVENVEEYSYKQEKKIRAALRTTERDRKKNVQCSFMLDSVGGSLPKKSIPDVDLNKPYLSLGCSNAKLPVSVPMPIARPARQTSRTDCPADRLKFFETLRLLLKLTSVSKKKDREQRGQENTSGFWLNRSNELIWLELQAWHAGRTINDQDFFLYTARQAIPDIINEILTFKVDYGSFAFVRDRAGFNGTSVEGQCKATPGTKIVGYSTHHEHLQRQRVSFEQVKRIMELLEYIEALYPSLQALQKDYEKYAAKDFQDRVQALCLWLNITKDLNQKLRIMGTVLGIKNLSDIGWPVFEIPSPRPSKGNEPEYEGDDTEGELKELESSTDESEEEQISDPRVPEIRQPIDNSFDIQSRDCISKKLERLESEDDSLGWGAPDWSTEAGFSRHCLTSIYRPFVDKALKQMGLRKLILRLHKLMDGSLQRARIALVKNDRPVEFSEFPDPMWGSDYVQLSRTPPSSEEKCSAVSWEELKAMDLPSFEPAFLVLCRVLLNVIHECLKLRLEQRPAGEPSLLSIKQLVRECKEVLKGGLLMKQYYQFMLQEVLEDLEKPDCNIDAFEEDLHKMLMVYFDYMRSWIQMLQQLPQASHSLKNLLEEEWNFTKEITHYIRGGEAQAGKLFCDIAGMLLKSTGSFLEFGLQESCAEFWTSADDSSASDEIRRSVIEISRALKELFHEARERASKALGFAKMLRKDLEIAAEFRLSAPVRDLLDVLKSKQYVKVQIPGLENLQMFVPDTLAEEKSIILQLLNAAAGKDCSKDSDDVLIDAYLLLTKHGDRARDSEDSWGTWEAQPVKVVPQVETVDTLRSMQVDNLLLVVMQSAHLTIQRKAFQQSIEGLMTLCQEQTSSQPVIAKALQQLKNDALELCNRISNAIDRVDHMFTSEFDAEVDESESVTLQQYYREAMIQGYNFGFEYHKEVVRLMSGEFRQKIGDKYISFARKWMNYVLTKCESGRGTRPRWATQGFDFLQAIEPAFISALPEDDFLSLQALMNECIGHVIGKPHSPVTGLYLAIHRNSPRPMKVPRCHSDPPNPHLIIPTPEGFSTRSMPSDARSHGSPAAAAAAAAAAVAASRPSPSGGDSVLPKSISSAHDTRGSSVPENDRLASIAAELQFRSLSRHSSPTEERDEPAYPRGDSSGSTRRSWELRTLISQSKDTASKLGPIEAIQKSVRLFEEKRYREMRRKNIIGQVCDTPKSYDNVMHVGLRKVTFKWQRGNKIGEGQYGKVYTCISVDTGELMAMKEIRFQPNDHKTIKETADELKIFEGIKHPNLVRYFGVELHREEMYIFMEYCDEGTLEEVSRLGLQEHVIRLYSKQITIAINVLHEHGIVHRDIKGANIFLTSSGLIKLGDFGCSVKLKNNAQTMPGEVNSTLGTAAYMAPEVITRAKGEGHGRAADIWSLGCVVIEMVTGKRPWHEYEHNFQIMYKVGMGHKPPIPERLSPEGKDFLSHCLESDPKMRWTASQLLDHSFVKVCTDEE
Sequence of CDK7 (P50613 whole entry): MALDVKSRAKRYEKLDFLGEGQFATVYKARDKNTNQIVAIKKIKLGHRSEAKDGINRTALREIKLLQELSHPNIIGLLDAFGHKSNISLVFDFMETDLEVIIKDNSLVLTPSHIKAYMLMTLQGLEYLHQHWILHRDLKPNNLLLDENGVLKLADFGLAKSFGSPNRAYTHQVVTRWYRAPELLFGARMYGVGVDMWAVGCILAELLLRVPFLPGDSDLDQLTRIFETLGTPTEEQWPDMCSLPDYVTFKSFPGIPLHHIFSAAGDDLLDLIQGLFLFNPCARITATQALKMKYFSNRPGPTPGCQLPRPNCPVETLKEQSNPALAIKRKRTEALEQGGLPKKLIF

## COc1nc(N[C@H]2CC[C@H](NS(=O)(=O)CC(C)C)CC2)nc2[nH]nc(N3CCOC[C@H]3C)c12 [compound 39, N-(trans-4-((4-Methoxy-3-((R)-3-methylmorpholino)-1H-pyrazolo[3,4-d]pyrimidin-6-yl)amino)cyclohexyl)-2-methylpropane-1-sulfonamide]
[1]
  IC50: ≥ 20 µM
[2]
  IC50: ≥ 20 µM
[3]
  IC50: ≥ 20 µM
[4]
  IC50: ≥ 20 µM
[5]
  IC50: 2.5 µM
[6]
  IC50: ≥ 20 µM
[7]
  IC50: ≥ 20 µM
[8]
  IC50: ≥ 20 µM
[9]
  IC50: ≥ 20 µM
[10]
  IC50: ≥ 20 µM
[11]
  IC50: ≥ 20 µM
[12]
  IC50: ≥ 20 µM
[13]
  IC50: ≥ 20 µM
[14]
  IC50: ≥ 20 µM
[15]
  IC50: ≥ 20 µM
[16]
  IC50: ≥ 20 µM
[17]
  IC50: ≥ 20 µM
[18]
  IC50: ≥ 20 µM
[19]
  IC50: ≥ 20 µM
[20]
  IC50: ≥ 20 µM
[21]
  IC50: ≥ 20 µM
